According to the NIST ThermoML archive (doi:10.1016/j.tca.2013.03.008):

Assay: xn = mol fraction of the nth substance listed
Conditions: 101 kPa, Liquid; for viscosity: Capillary tube (Ostwald / Ubbelohde) method; for mass density: Vibrating tube method

CCOC(=O)CCl [ethyl chloroethanoate] + CCC(C)O
Conditions | mass density, 298.15 K [kg/m3] | mass density, 308.15 K [kg/m3] | mass density, 318.15 K [kg/m3] | viscosity, 298.15 K [mPa·s] | viscosity, 308.15 K [mPa·s] | viscosity, 318.15 K [mPa·s]
x2 = 0 | 1144.11 | 1131.46 | 1118.74 | 1.095 | 0.934 | 0.816
x2 = 0.1008 | 1111.91 | 1099.43 | 1086.98 | 1.055 | 0.895 | 0.778
x2 = 0.204 | 1078.95 | 1066.72 | 1054.42 | 1.041 | 0.877 | 0.755
x2 = 0.2885 | 1051.67 | 1039.71 | 1027.56 | 1.033 | 0.875 | 0.756
x2 = 0.3625 | 1027.45 | 1015.7 | 1003.8 | 1.048 | 0.88 | 0.753
x2 = 0.45 | 998.34 | 986.92 | 975.3 | 1.107 | 0.895 | 0.759
x2 = 0.5384 | 968.29 | 957.21 | 945.94 | 1.183 | 0.945 | 0.791
x2 = 0.6138 | 942.27 | 931.52 | 920.57 | 1.246 | 0.987 | 0.817
x2 = 0.6906 | 915.31 | 904.95 | 894.31 | 1.332 | 1.063 | 0.866
x2 = 0.7724 | 886.17 | 876.24 | 865.99 | 1.489 | 1.182 | 0.947
x2 = 0.8541 | 856.59 | 847.12 | 837.33 | 1.789 | 1.367 | 1.089
x2 = 0.9197 | 832.49 | 823.43 | 814.03 | 2.183 | 1.611 | 1.225

CCC(=O)CC [pentan-3-one] + CCC(C)O
Conditions | mass density, 298.15 K [kg/m3] | mass density, 308.15 K [kg/m3] | mass density, 318.15 K [kg/m3] | viscosity, 298.15 K [mPa·s] | viscosity, 308.15 K [mPa·s] | viscosity, 318.15 K [mPa·s]
x1 = 0.0848 | 803.03 | 794.48 | 785.52 | 2.069 | 1.539 | 1.172
x1 = 0.1511 | 803.42 | 794.8 | 785.78 | 1.602 | 1.246 | 0.976
x1 = 0.2353 | 803.97 | 795.22 | 786.14 | 1.229 | 0.986 | 0.802
x1 = 0.3023 | 804.42 | 795.58 | 786.43 | 1.039 | 0.854 | 0.711
x1 = 0.3793 | 804.94 | 795.99 | 786.77 | 0.879 | 0.734 | 0.622
x1 = 0.4676 | 805.54 | 796.47 | 787.16 | 0.761 | 0.637 | 0.55
x1 = 0.4927 | 805.71 | 796.61 | 787.27 | 0.731 | 0.612 | 0.531
x1 = 0.5536 | 806.12 | 796.95 | 787.54 | 0.657 | 0.57 | 0.499
x1 = 0.6269 | 806.62 | 797.36 | 787.87 | 0.6 | 0.524 | 0.461
x1 = 0.7129 | 807.21 | 797.84 | 788.26 | 0.536 | 0.482 | 0.429
x1 = 0.8104 | 807.89 | 798.4 | 788.7 | 0.494 | 0.446 | 0.403
x1 = 0.9043 | 808.59 | 798.96 | 789.15 | 0.466 | 0.419 | 0.378
x1 = 1 | 809.38 | 799.55 | 789.63 | 0.442 | 0.398 | 0.362

CCOC(=O)CCl [ethyl chloroethanoate] + CCC(=O)CC
Conditions | mass density, 298.15 K [kg/m3] | mass density, 308.15 K [kg/m3] | mass density, 318.15 K [kg/m3] | viscosity, 298.15 K [mPa·s] | viscosity, 308.15 K [mPa·s] | viscosity, 318.15 K [mPa·s]
x2 = 0 | 1144.11 | 1131.46 | 1118.74 | 1.095 | 0.939 | 0.815
x2 = 0.0502 | 1127.54 | 1115 | 1102.39 | 1.05 | 0.902 | 0.783
x2 = 0.0877 | 1115.18 | 1102.73 | 1090.21 | 1.017 | 0.874 | 0.76
x2 = 0.1207 | 1104.29 | 1091.91 | 1079.49 | 0.987 | 0.85 | 0.741
x2 = 0.1692 | 1088.28 | 1076.05 | 1063.74 | 0.944 | 0.815 | 0.713
x2 = 0.2551 | 1059.87 | 1047.89 | 1035.82 | 0.87 | 0.756 | 0.666
x2 = 0.3266 | 1036.16 | 1024.36 | 1012.49 | 0.813 | 0.71 | 0.63
x2 = 0.413 | 1007.44 | 995.88 | 984.26 | 0.75 | 0.659 | 0.587
x2 = 0.4998 | 978.47 | 967.18 | 955.81 | 0.695 | 0.612 | 0.548
x2 = 0.574 | 953.63 | 942.56 | 931.39 | 0.653 | 0.575 | 0.517
x2 = 0.6638 | 923.44 | 912.62 | 901.71 | 0.604 | 0.533 | 0.48
x2 = 0.7475 | 895.2 | 884.6 | 873.95 | 0.562 | 0.498 | 0.449
x2 = 0.827 | 868.26 | 857.9 | 847.48 | 0.522 | 0.466 | 0.421
x2 = 0.9114 | 839.54 | 829.45 | 819.27 | 0.481 | 0.434 | 0.391
